Type in all cases: cell-based
The subject of test [1] is T47D cells. Kind of test: Proliferation colony formation assay (SRB stain). As for the experimental part: (§1) T47D, ZR-75-1, or MCF7 cells were seeded into 6-well tissue culture plates at 10% seeding confluence (100,000-150,000 cells per well). After allowing 18-24 hours for the cells to attach to the wells, growth media was aspirated and discarded and new growth media containing 0-20 μM of either COMPOUND A or COMPOUND B was added in 2-fold increments of descending concentration from 20 μM to the cells (proliferation assay). In parallel, seeded cultures with the same titration of the KAT6 inhibitors was added to the cells. 500 nM palbociclib was also added for each concentration of the KAT6 inhibitors (palbociclib recovery assay). The cultures were incubated 12-14 days and treated with these inhibitors/inhibitor combinations. Growth media containing the inhibitors was replaced on the cell cultures every 3-4 days (twice per week).
For the KAT6 inhibitor treated T47D cultures (proliferation assay), after 12 days the vehicle (DMSO) treated cultures were >90% confluent and the cell cultures were SRB stained as described in Example 3. The stained 6-well plates were scanned using an Epson Perfection V600 Photo Scanner and Epson Scan version 3.9.2.0 software. To quantitate SRB staining in each 6-well culture, the cultures were destained with 2 mL 10 mM Tris pH 7.5 per well and the absorbance at 565 nm (O.D. 565) of the released stain was measured using a SpectraMax Plus plate reader and SoftMaxPro 5.4.3 software. Inhibition of T47D cell proliferation by both COMPOUND A and COMPOUND B were equivalent with 50% proliferation inhibition observed with 10 μM of the KAT6 inhibitors (FIGS. 8A and 8C).
Cells were plated at low density into 6-well culture dishes and allowed to attach overnight at 37° C., 5% CO2. The next day, in parallel to the proliferation set, palbociclib was added at a final concentration of […] to another set of plates, which served as the set for palbociclib recovery. To both proliferation and palbociclib recovery plates, DMSO or KAT6 inhibitor was added into each well at increasing doses. Medium and KAT6 inhibitor were refreshed twice a week. Cells were cultured for about two weeks of drug treatment until the DMSO-treated wells reached confluency. At the end of treatment, cells were washed once with phosphate-buffered saline and were fixed and stained with SRB for visualization followed by quantification. […] Wells were fixed and stained with SRB for visualization followed by quantification. To quantify the stain, stained cells were dissolved in 2 mL of 10 mM Tris-HCl, pH 7.5 and shaken for 10 min on a shaker. Samples were then diluted with 10 mM Tris-HCl, pH 7.5, transferred to a 96-well microtiter plate in a volume of 100 μL and read on SpetraMax at 565 nm.

Test [2] has as its system T47D cells. As to the kind of experiment: Palbociclib recovery colony formation assay (SRB stain). Particulars: Homo sapiens, read-out: KAT6 inhibitor concentration giving 50% inhibition of recovery, with 500 nM palbociclib 14 days, then 14 days recovery. The procedure:
as §1
For the T47D cultures arrested with 500 nM palbociclib and treated with increasing concentration of the KAT6 inhibitors (palbociclib recovery assay), after 14 days of combination treatment the growth media containing the inhibitors was aspirated from the cultures and discarded. […] After allowing 14 days for the cultures to recover, those that recovered from single agent 500 nM palbociclib arrest were >90% confluent and all the palbociclib recovery cultures were SRB stained, scanned, and destained/measured as described above. […]
In general terms: In SRB staining, fixed cells bind dye roughly in proportion to their protein.

In test [3] the test system is ZR-75-1 cells. As to the kind of experiment: Proliferation colony formation assay (SRB stain). Particulars: for IC50: Homo sapiens. The procedure:
as §1
(§2) For the ZR-75-1 and MCF7 experiments, only COMPOUND A was tested. For the single agent treated ZR-75-1 cultures the vehicle treated cultures were >90% confluent after 12 days of treatment. These cultures were SRB stained, scanned, and destained/measured as described above. […] After 22 days of recovery, the ZR-75-1 cultures that had been treated with single agent 500 nM palbociclib were >90% confluent and these palbociclib recovery assay cultures were SRB stained, scanned, and destained/measured as described above.
Cells were plated at low density into 6-well culture dishes and allowed to attach overnight at 37° C., 5% CO2. […] At the end of treatment, cells were washed once with phosphate-buffered saline and were fixed and stained with SRB for visualization followed by quantification. […] Wells were fixed and stained with SRB for visualization followed by quantification. To quantify the stain, stained cells were dissolved in 2 mL of 10 mM Tris-HCl, pH 7.5 and shaken for 10 min on a shaker. Samples were then diluted with 10 mM Tris-HCl, pH 7.5, transferred to a 96-well microtiter plate in a volume of 100 μL and read on SpetraMax at 565 nm.

In test [4] the test system is ZR-75-1 cells. As to the kind of experiment: Palbociclib recovery colony formation assay (SRB stain). Particulars: Homo sapiens, read-out: Concentration giving 50% inhibition of recovery; ZR-75-1, with 500 nM palbociclib 14 days, then 22 days recovery. The procedure:
as §1, §2

Test [5] concerns MCF7 cells. As to the kind of experiment: Proliferation colony formation assay (SRB stain). Particulars: Homo sapiens, 240 h, read-out: Concentration giving 50% inhibition of proliferation; MCF7, single agent, 10 days. The procedure:
as §1
(§3) The MCF7 cells were tested with COMPOUND A. For the single agent treated MCF7 cultures, the vehicle treated cultures were >90% confluent after 10 days of treatment. These cultures were SRB stained, scanned, and destained/measured as described above. […] After 10 days of recovery, the MCF7 cultures that had been treated with single agent 500 nM palbociclib were >90% confluent and these palbociclib recovery assay cultures were SRB stained, scanned, and destained/measured as described above.

Test [6] deals with MCF7 cells. Kind of test: Palbociclib recovery colony formation assay (SRB stain). Particulars: Homo sapiens, read-out: Concentration giving 50% inhibition of recovery; MCF7, with 500 nM palbociclib 14 days, then 10 days recovery. The procedure: as §1, §3
Test [7] relates to ESR1 (encoding estrogen receptor alpha (ERα)) expression in T47D cells. As to the kind of experiment: GeneChip gene expression analysis. Particulars: 10 μM, 6 days. As for the experimental part:
T47D cell lines having either the Tet-ON KAT6A_5, KAT6A_6, or shRenilla shRNAs were treated with 0.2 μg/mL doxycycline to induce expression of the respective shRNA in the T47D cells and initiate knockdown of KAT6A (KAT6A_5 and KAT6A_6 cells only). The cells were treated with doxycycline for 4 days, which provided suffient time for KAT6A protein depletion in the cells. On day 3 of doxycycline treatment, the KAT6A_5, KAT6A_6, and shRenilla T47D cells were suspended and seeded into 6-well tissue cultures plates at 10% confluence. Parental T47D cells (no shRNA) were also seeded into 6-well tissue culture plates at 10% confluence. On day 4 after shRNA induction, half the T47D KAT6A_5, KAT6A_6, and shRenilla cultures were treated with 0.5 μM palbociclib and half the cultures were kept untreated. All cultures were kept in growth media containing 0.2 μg/mL doxycycline to maintain KAT6A knockdown in the cells throughout the experiment. The parental T47D cells were split into four groups as follows: (1) vehicle treated (DMSO), (2) vehicle+0.5 μM palbociclib, (3) 10 μM COMPOUND A treated, and (4) 10 μM COMPOUND A+0.5 μM palbociclib. The parental T47D and T47D-shRNA cell lines were subsequently treated for 6 days and the growth media, containing the inhibitors represented the different growth conditions described above, was replaced once on day 3 of treatment. […]

Test [8] has as its system estradiol response genes in T47D cells. As to the kind of experiment: RNA-Seq gene set enrichment analysis. Particulars: 20 nM, 6-day treatment, GSEA. The procedure:
The following day, cells were treated with vehicle control (DMSO) or COMPOUND C at 20 nM concentration. Media and compounds were refreshed three days later for a total of 6-day treatment. At the end of the 6-day treatment, cells were harvested by trypsinization and lysed in Buffer RLT (Qiagen, Cat No./ID 79216)^+β-mercaptoethanol. RNA lysates were submitted for RNA sequencing (“RNA-Seq”) (WuXi NextCODE®).
RNA-Seq data analysis: Adapter sequences were trimmed off from the Illumina raw reads, provided by WuXi NextCODE®, using Trimmomatic (v0.36) for paired-end reads, and low-quality reads were filtered out. Reads remaining after the pre-processing step were mapped to the reference genome hg38 using STAR (v2.6.0c). Gene level expression was quantitated as expected counts and transcripts per million (TPM) using “rsem-calculate-expression” of RSEM (v1.3.0) with default parameters. Differential expression analysis of robustly expressed genes (max expression across samples >=10) was performed using DESeq2 (v1.18.1) package. Gene set enrichment analysis (GSEA, v3.0) was conducted using GseaPreranked option. Genes were ranked based on signedlog10pval. Gene set collections (c2.all.v6.1) from Molecular Signatures Database (MSigDB) were used in this analysis.

Test [9] has as its system ERα and Cyclin D1 in T47D cells. As to the kind of experiment: Western blot after KAT6 inhibitor dose titration. Particulars: increasing concentrations, 14 days. As for the experimental part: Cells were plated at 10,000 cells per well into 6-well culture dishes and allowed to attach overnight at 37° C., 5% CO2. The next day, either COMPOUND C or COMPOUND D was added to wells at increasing concentrations, in addition to DMSO as vehicle control. Cells were cultured for 14 days with medium and KAT6 inhibitor refreshed twice a week (every 3-4 days). At the end of drug treatment, one million cells were collected via trypsinization for protein lysates. Cells were lysed in 100 μL 1× LDS buffer diluted from 4× LDS buffer (ThermoFisher catalog #NP0007) with reducing agent (ThermoFisher catalog #NP0009). The lysates were subsequently sonicated and loaded onto a NuPAGE 4-12% Bis-Tris gel (ThermoFisher, catalog #NP0321BOX) followed by electrophoresis. Gels were then transferred onto a nitrocellulose membrane (iBlot2, ThermoFisher). Membranes were blocked and incubated overnight at 4° C. with following antibodies: anti-ERα (D8H8) Rabbit mAb (#8644, Cell Signaling) and anti-β-actin (8H10D10) mouse mAb (Cell Signaling, #3700S). […]

Consider two compounds from patent publication US20260240819A1, “KAT6 INHIBITOR METHODS AND COMBINATIONS FOR CANCER TREATMENT” (Pfizer Inc., priority 2020, published 2026).

As to `Cc1cc(-c2ccccc2)cc(C(=O)NNS(=O)(=O)c2ccccc2)c1F` [COMPOUND A, N′-(4-fluoro-5-methyl-[1,1′-biphenyl]-3-carbonyl)benzenesulfonohydrazide], the IC50 in [1] (Homo sapiens, 288 h, single agent, 12 days, read-out: Concentration giving 50% proliferation inhibition) was 10 µM; in test [2] it was 5 µM; in [3] (288 h, read-out: Concentration giving 50% inhibition of proliferation, ZR-75-1, single agent, 12 days), 0.3 µM; in test [4], 2.5 µM; in test [5], > 20 µM; in test [6], 5 µM. In addition, in [7], the “ESR1 expression and downstream ERα regulated genes” value was “significant downregulation”.
`COc1cccc(OC)c1S(=O)(=O)Nc1noc2cc(Cn3cccn3)cc(OC)c12` [COMPOUND C, 2,6-dimethoxy-N-{4-methoxy-6-[(1H-pyrazol-1-yl)methyl]-1,2-benzoxazol-3-yl}benzene-1-sulfonamide]: the “Kind of effect on cell growth” value in test [1] (dose titration) is reported as “cytostatic”. In addition, the “Maximal reduction of growth” value in test [1] (single agent, about two weeks) is given as “about 40%”. Also, the IC50 in test [3] (ZR-75-1, ZR75-1, single agent, about two weeks, read-out: Concentration giving 50% growth inhibition) is ~0.0039 µM. Also, in test [3] (ZR75-1, dose titration), the “Kind of effect on cell growth” value is “strong dose-dependent cytotoxic effect”. Besides, in test [8], the “NES (Normalized Enrichment Score), estradiol-induced genes” value was −9,92 and the “NES (Normalized Enrichment Score), estradiol-repressed genes” value is recorded as 6.27. In test [9], the “ERα and Cyclin D1 protein” value was “dose-dependent depletion”.
